This note sets out measurements from patent US7994185B2, “Benzene sulfonamide thiazole and oxazole compounds” (Glaxo Smith Kline LLC, priority 2008, dated 2011).

Assay [1] concerns Human colon tumor cells (Colo205). In words: Cell growth inhibition assay (CellTiter-Glo), Colo205. Format: cell-based. The essentials: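 Read-out was CellTiter-Glo luminescence (total ATP as a cell-number surrogate), expressed as % inhibition against DMSO vehicle wells. Before that, cells grown in RPMI/10% FBS were treated for 3 days at 37 °C with ten 1:3-spaced compound concentrations, final DMSO 0.2%.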
Background: ATP-based viability assays read luminescence as a measure of living cells.

For assay [2], the system named is Human melanoma cancer cells (SK-MEL-28). As to the kind of experiment: Cell growth inhibition assay (CellTiter-Glo), SK-MEL-28. In kind it is cell-based.
Assay [3] deals with MALME-3M. In words: 3 day proliferation assay, B-Raf V600E mutant cancer cell line. Format: cell-based. The conditions noted are these: Homo sapiens, Skin, BRAF V600E, read-out: Mean gIC50.
The test system of assay [4] is UACC-62. The assay is described as above. The conditions noted are these: Homo sapiens; UACC-62, Skin, BRAF V600E; read-out: Mean gIC50. Format: cell-based.
For assay [5], the system named is C32TG. The description is as above. In kind it is cell-based. The conditions noted are these: Skin, BRAF V600E, read-out: Mean gIC50.
Assay [6] relates to SK-MEL-1. The description is as above. Format: cell-based. The conditions noted are these: Homo sapiens; SK-MEL-1, Skin, BRAF V600E; read-out: Mean gIC50.
Assay [7] deals with UCLA-SO-M14. The assay is described as above. Format: cell-based. The conditions noted are these: UCLA-SO-M14, Skin, BRAF V600E; read-out: Mean gIC50.
The test system of assay [8] is SK-MEL-28. Described as above. Format: cell-based. The conditions noted are these: Homo sapiens; SK-MEL-28, Skin, BRAF V600E; read-out: Mean gIC50.
Assay [9] deals with DU4475. Described as above. In kind it is cell-based. The conditions noted are these: Homo sapiens, DU-4475; DU4475, Breast, BRAF V600E; read-out: Mean gIC50.
In assay [10] the test system is WM115. Described as above. Format: cell-based. Particulars: Homo sapiens, WM-115, WM115, Skin, BRAF V600D, read-out: Mean gIC50.
The test system of assay [11] is UACC-257. The description is as above. Format: cell-based. The conditions noted are these: Homo sapiens; UACC-257, Skin, BRAF V600E; read-out: Mean gIC50.
For assay [12], the system named is COLO 205. The description is as above. In kind it is cell-based. The conditions noted are these: Homo sapiens; COLO 205, Colon, BRAF V600E; read-out: Mean gIC50.
The test system of assay [13] is SK-MEL-3. Described as above. Particulars: Homo sapiens, SK-MEL3; SK-MEL-3, Skin, BRAF V600E; read-out: Mean gIC50. Format: cell-based.
In assay [14] the test system is A375P F11s. The description is as above. In kind it is cell-based. The conditions noted are these: Skin, BRAF V600E, read-out: Mean gIC50.
Assay [15] relates to SH-4. Described as above. Format: cell-based. Particulars: Homo sapiens; SH-4, Skin, BRAF V600E; read-out: Mean gIC50.
Assay [16] concerns A101D. The assay is described as above. The conditions noted are these: Homo sapiens, Skin, BRAF V600E, read-out: Mean gIC50. In kind it is cell-based.
The test system of assay [17] is ES-2. The description is as above. Particulars: Homo sapiens; ES-2, Ovary, BRAF V600E; read-out: Mean gIC50. In kind it is cell-based.
Assay [18] concerns HT-29. The assay is described as above. In kind it is cell-based. The conditions noted are these: Homo sapiens, HT-29, Colon, BRAF T119S, read-out: Mean gIC50.
The test system of assay [19] is SW1417. The assay is described as above. In kind it is cell-based. The conditions noted are these: Homo sapiens; SW1417, Colon, BRAF V600E; read-out: Mean gIC50.
Assay [20] concerns SW872. Described as above. In kind it is cell-based. The conditions noted are these: Homo sapiens; SW872, Connective tissue, BRAF V600E; read-out: Mean gIC50.
The subject of assay [21] is RKO. Described as above. In kind it is cell-based. The conditions noted are these: Homo sapiens, Colon, BRAF V600E, read-out: Mean gIC50.
The test system of assay [22] is A673. The assay is described as above. In kind it is cell-based. The conditions noted are these: Homo sapiens; A673, Muscle, BRAF V600E; read-out: Mean gIC50.
Assay [23] has as its system GCT. The description is as above. In kind it is cell-based. Particulars: Homo sapiens, Skin, BRAF V600E, read-out: Mean gIC50.
The test system of assay [24] is NCI-H292. The assay is described as above. In kind it is cell-based. Particulars: Homo sapiens, NCI-H292, Lung, BRAF T119S, read-out: Mean gIC50.
In assay [25] the test system is cancer cell lines encoding B-Raf V600E mutation. In words: 3 day proliferation assay, panel of 22 mutant cancer cell lines. In kind it is cell-based. The conditions noted are these: number of cell lines of the panel.
Assay [26] has as its system A375P F11s. As to the kind of experiment: Dose dependent tumor inhibition, A375P F11s xenograft. Particulars: oral, 14-day period. Also noted: key: −: indicates no response; +: indicates growth delay (1-2x doubling); ++: indicates growth delay (>2x doubling); +++: indicates stable disease; ++++: indicates partial regression; +++++: indicates complete regression. In kind it is in vivo, athymic mice. The protocol: 1. […] Tumor cells (2×10^6 A375P F11s) were implanted subcutaneously into the right flank of athymic mice on Day 1. To facilitate their growth, A375P F11s cells were suspended in Matrigel diluted 1:1 in phosphate-buffered saline before implantation. When tumors had reached approximately 200 mm^3 in volume (Day 19-22), tumor-bearing mice were randomized into study groups (n=7 or 8). Animals were dosed orally once or twice daily for a 14-day period. […] Tumor growth was measured twice a week using calipers for the duration of the study. Tumor volumes were calculated as a product of (length×width×width)/2 and median values were used to compare groups. Complete regressions (CR) were defined as three consecutive tumor measurements of ≦13.5 mm^3. Partial regressions were defined as three consecutive measurements of ≦50% of starting tumor volume. Tumor growth delay was defined as the difference in time taken for treated and control groups to reach 1000 mm^3 (T-C1000).

The target of assay [27] is T1, BRAFV600E full-length (amino acids 2-766) (Homo sapiens, UniProt P15056, V600E).
T1 construct: His6-tagged BRAFV600E full-length (amino acids 2-766); His6; made in house; host or cells: baculovirus expression system (insect cells)
In words: B-Raf Accelerated MEK ATPase assay (BRAMA). Format: biochemical. Particulars: categorized. An outline of the steps:
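Coupled-enzyme readout: ADP generated by MEK-mediated ATP hydrolysis, uncoupled from ERK phosphorylation, is linked to NADH oxidation through pyruvate kinase and lactate dehydrogenase.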

Assay [28] concerns pERK (pERK/tERK). As to the kind of experiment: Pharmacodynamic effect, pERK/tERK in A375P F11s xenograft tumors. Format: in vivo, mice. Particulars: Mus musculus; A375P F11s xenograft tumors, single oral dose of 100 mg/kg, 2 h after administration; read-out: inhibition of pERK (pERK/tERK). As for the experimental part:
Animals were housed in pathogen free conditions and handled with aseptic technique. […] Detached cells were collected, centrifuged (1500 rpm, 5 min, 4° C.) and rinsed to remove the trypsin solution. Cells were resuspended in PBS without magnesium or calcium and counted. Cells were spun as previously to remove PBS and a single cell suspension was created either in 50% Matrigel: 50% PBS (v:v) or 100% PBS so that a 100 μL subcutaneous injection would deliver the required number of cells per mouse. The A375P F11s melanoma line was injected with Matrigel at 4 million cells per mouse. Tumors were established (˜150-300 mm^3) for all cell lines within 2-4 weeks post-injection.
At 2 h following oral administration of compound mice were euthanized using carbon dioxide. Tumors were carefully excised, homogenized using Medimachine (BD Bioscience) with 1 ml of lysis buffer (25 mM Tris-HCl (pH 7.5), 2 mM EDTA (pH 8.0), 2 mM EGTA (pH 8.0), 1% Triton X-100, 0.1% SDS, 50 mM Na—B—PO4, 2 mM NaVO4, 4 mM Na-Pyr-PO4, 2× phosphatase inhibitor cocktail. Crude homogenate was transferred to a 12 ml polypropylene tube containing 1.5 ml of lysis buffer and kept on ice. Following homogenization of all samples, 1 ml of homogenate was transferred to an eppendorf tube and centrifuged at 14,000 rpm for 15 min at 4° C. Five hundred microliter of clarified lysate was transferred to a new tube, flash frozen and processed for quantitation of pERK and tERK using western blot or Elisa (MSD) assays. […] BioRad dye was added to BSA dilutions and diluted test lysates. […] Comparison to the standard curve provides a relative measurement of protein concentration. […] The gels were transferred onto nitro-cellulose membranes using the iBlot transfer apparatus, which were then blocked and incubated with different primary antibodies overnight at 4° C. Western blots dually probed against pERK and tERK were scanned using LI-COR Odyssey® reader. A ratio of the immunofluorescent density obtained for pERK/tERK is calculated and expressed as a ratio (in percentage) to control untreated samples. For determination of pERK/tERK ratio by ELISA, MesoScale Discovery (MSD) (cat# K15107) plate were used according to manufacturer's instructions. In brief, MSD plates were block with 150 μl/well of blocking buffer for 1 hr before being washed 4 times with 200 μl of washing buffer. Thirty microliter (30 μl) of serially diluted samples was added to wells and plates were incubated overnight at 4° C. under slow agitation (˜500 rpm). Plates were washed 4 times in 200 μl 1× Tris wash buffer and 25 μl detection antibody solution was added to all wells and incubated at room temperature for 1 hr (˜500 rpm). Plates were washed 4 times in 200 μl wash buffer and 150 μl of read buffer was added to all wells. Plates were read on MSD.SI6000. In this assay vehicle and compound treated samples were tested at 4 different dilutions to allow linear range coverage of the assay. From pERK and tERK signal, background (BSA signal) was subtracted and ratio of pERK/tERK determined and normalized to untreated vehicle samples, arbitrarily set at 100%.

For assay [29], the system named is A375P F11s. In words: 3-day proliferation assays, selection of A375P F11s clone. Format: cell-based, human. Particulars: A375P F11s subclone of A375P. The protocol:
Activity of select exemplified compounds was tested in vivo against A375 PF11s (melanoma cell line encoding a B-Raf V600E mutation) xenograft mouse model. The A375P F11s cell line, encoding a mutation for BRAF^V600E, was subcloned from the A375P human melanoma cell line (obtained from ATCC, Cat # CRL-1619) by limiting dilution and selected based on high (90%) sensitivity to the BRAF inhibitor, SB-590885 (commercially available), in 3-day proliferation assays. The selected clone (A375P F11s) was isolated and mutation in B-Raf (T1799A) encoding the V600E amino acid change was reconfirmed.

[30] abbreviates: COLO 205, Table 2b, later runs, average for the one or more runs, categorized, read-out: IC50 for Colo205.
The mark [31] stands for this setting: SK-MEL-28, Table 3b, later runs, average for the one or more runs, categorized, read-out: IC50 for SK-MEL-28.

Where two headings read alike, the source gives them in different places.

T1 sequence (P15056 2-766 V600E): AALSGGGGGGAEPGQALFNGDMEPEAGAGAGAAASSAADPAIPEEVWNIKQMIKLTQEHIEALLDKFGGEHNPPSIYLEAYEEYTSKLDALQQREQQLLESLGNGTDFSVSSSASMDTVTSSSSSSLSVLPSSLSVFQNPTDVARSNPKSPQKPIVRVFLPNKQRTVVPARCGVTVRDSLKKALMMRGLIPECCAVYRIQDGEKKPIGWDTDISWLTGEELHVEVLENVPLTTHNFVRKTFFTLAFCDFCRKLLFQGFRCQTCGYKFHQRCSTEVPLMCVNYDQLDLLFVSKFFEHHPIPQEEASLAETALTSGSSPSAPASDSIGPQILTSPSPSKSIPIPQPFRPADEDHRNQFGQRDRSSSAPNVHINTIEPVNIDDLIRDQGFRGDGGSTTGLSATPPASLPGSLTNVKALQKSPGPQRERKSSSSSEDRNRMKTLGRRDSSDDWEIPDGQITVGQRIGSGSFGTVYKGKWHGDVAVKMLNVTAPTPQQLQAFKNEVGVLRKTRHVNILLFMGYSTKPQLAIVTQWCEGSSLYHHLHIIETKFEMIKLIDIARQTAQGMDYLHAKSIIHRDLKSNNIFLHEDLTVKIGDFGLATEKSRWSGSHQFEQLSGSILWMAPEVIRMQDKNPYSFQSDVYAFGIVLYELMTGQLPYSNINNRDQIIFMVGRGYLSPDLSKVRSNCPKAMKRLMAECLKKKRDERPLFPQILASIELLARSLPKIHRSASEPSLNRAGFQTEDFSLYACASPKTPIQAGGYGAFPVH

As to `CC(C)(C)c1nc(-c2cccc(NS(=O)(=O)c3c(F)cccc3F)c2F)c(-c2ccnc(N)n2)s1` [Example 58a, N-{3-[5-(2-Amino-4-pyrimidinyl)-2-(1,1-dimethylethyl)-1,3-thiazol-4-yl]-2-fluorophenyl}-2,6-difluorobenzenesulfonamide], the IC50 in assay [1] (setting [30]), in assay [2] (setting [31]), in assay [3], in [4], in assay [5] and in assay [6] was less than 100 nM throughout. For the same molecule, the IC50 in assay [7], in [8], in assay [9], in [10], in assay [11] and in [12] was less than 100 nM each time. For the same molecule, the IC50 in assay [13], in [14], in [15], in assay [16], in assay [17] and in assay [18] was less than 100 nM each time. For the same molecule, the IC50 in assay [19] is 100 to 1000 nM; in assay [20] it was 100 to 1000 nM; in [21], not below 1000 nM; in [22] it was not below 1000 nM; in assay [23], not below 1000 nM; in assay [24] it was not below 1000 nM. The “cancer cell lines encoding B-Raf V600E sensitive with gIC50<100 nM” value in assay [25] was 16 out of 22. Further, the “cancer cell lines not sensitive (gIC50>1000M)” value in assay [25] is recorded as 4 out of 22. In addition, in [25], the “cancer cell lines with intermediate response (gIC50≧100 nM and <1000 nM)” value was 2 out of 22. In addition, the results for the Response result in assay [26] (0.1 mg/kg qd) and in assay [26] (1 mg/kg qd) were “−” and “+ (indicates growth delay (1-2x doubling))”, respectively.
On to `Nc1nccc(-c2sc(N3CCOCC3)nc2-c2cccc(NS(=O)(=O)c3cc(F)ccc3F)c2Cl)n1` [Example 156], for which the IC50 was less than 100 nM in assay [27] (B-Raf Activity, Table 1a, highest pIC50 for the one or more runs); not above 3.16 nM in assay [27] (B-Raf pIC50, Table 1b, later runs, average pIC50 for the one or more runs); less than 100 nM in [1] (COLO 205, 72 h, Table 2a, 3 days incubation, read-out: Activity in Colo205 Tumor Cells); less than 100 nM in [1] (setting [30]); less than 100 nM in assay [2] (SK-MEL-28, 72 h, Table 3a, 3 days incubation, read-out: Activity in SK-MEL-28 Tumor Cells); less than 100 nM in assay [2] (setting [31]). The inhibition at 100 mg/kg in [28] is not below 30%.
On to `CN(C)CCOc1ccc(-c2nc(-c3ccncc3)c(-c3ccc4c(c3)CC/C4=N\O)[nH]2)cc1` [SB-590885], for which the “sensitivity to the BRAF inhibitor in 3-day proliferation assays” value in assay [29] worked out at 90%.
